Laboratory results taken from article PMC9115112, “A2B adenosine receptor antagonists rescue lymphocyte activity in adenosine-producing patient-derived cancer models” (Journal for Immunotherapy of Cancer, 2022).

Tests used:
Format in all cases: cell-based, human
[1] = tested on: CD4 and CD8 T cells (healthy donor PBMCs); test: IFNy and perforin cytokine production assay, with CD69 expression (flow cytometry); conditions: antagonist 12 µM; for IFNy production in CD8 T cells: n=6 healthy donors
Method: Similar experimental setup was performed as the extracellular ADO uptake assay. Cells were harvested after 2 days of CD3/CD28 bead stimulation before treatment with PMA/ionomycin (Sigma Aldrich) and golgi-inhibitors (BD biosciences). After 3 hours of subsequent incubation, intracellular staining was performed for IFNy and perforin (online supplemental table 1).
(§1) Figure 4 Rescue of lymphocyte proinflammatory cytokine production IFNy and perforin by A2BAR antagonism. (A,B) Inhibition of extracellular adenosine uptake via phosphorylated-AMP activated protein kinase (pAMPK) staining (n=7 healthy donors). Production of proinflammatory cytokines—(C,D) IFNy and (E) perforin in CD4 (n=5 healthy donors) and CD8 (n=6 healthy donors) T cells. Expression of CD69 adhesion molecule in (F). CD4 (n=7 healthy donors) and (G) CD8 (n=4 healthy donors) T cells. A2BAR antagonist 12 µM was added. Outlier is presented as diamond shape and defined by Tukey’s rule, which is not included in statistical analysis. Box plots with minimum, first quartile, median, third quartile, and maximum are presented. Normalized fold change is based on percent values compared with untreated controls. Unpaired and non-parametric statistical analysis—Mann-Whitney test was performed against untreated control with *p<0.05, **p<0.01, ***p<0.001, and ****p<0.0001.

[2] = tested on: autologous TILs and patient-derived sarcoma spheroids; test: Spheroid infiltration by autologous TILs (real-time imaging and flow cytometry); conditions: antagonist 12 µM, 3 days
Method: Spheroids were prepared using patient-derived sarcoma cell lines. 1×10^4 cells were seeded per well in 96-well ultra-low attachment plate with DMEM-F12 media containing 20% FBS and 1% PS for 5 days. 3×10^4 CSFE-labeled autologous expanded TILs, at Effector:target ratio of 3:1, were added to the spheroid at day five with A2BAR antagonism treatment at 12 µM. After 3 days, spheroid was removed and split into two groups—IN and OUT. […] Spheroids were washed with PBS at least two times. GentleMACS tumor dissociation kit (Miltenyi Biotec) was used to digest the spheroids for FC analysis.
Brightfield and phase contrast images under 4X objective were acquired every 6 hours on IncuCyte S3 system (Essen BioScience). For breast cancer patient-derived spheroid culture, 1×10^4 cells per well were seeded with A2BAR antagonist at 12 µM treatment for 6 days real time imaging. For spheroid infiltration, after the addition of CSFE-labeled autologous expanded TILs and treatment with A2BAR antagonist at 12 µM, green fluorescence images were acquired for 3 days. All spheroid invasion analysis was performed using top hat segmentation with IncuCyte software.
Cell surface was stained with mouse monoclonal antihuman antibodies against CD3, CD4, CD8, CD45RA, CD56 and CD19 listed in online supplemental table 1. Cell surface antibodies and live/dead (L/D) marker were incubated with samples at 4°C for 20 min after washing two times with flow cytometry buffer containing 5% FBS in PBS. For spheroid infiltrated TIL phenotyping, digested IN and OUT spheroids were stained with cell surface marker and analyzed on NovoCyte (ACEA Bioscience) with the use of FlowJo software (Tree Star) by gating single cell based on forward and side scatters. A representative gating strategy for CD8 naïve T cells is shown in online supplemental figure 3A. Compensated flow cytometry standard (FCS) files with only live cells were concatenated for downstream tSNE analysis using the ‘cytofkit’ R package (https://github.com/JinmiaoChenLab/cytofkit).
Figure 6 Infiltration of TILs into autologous patient-derived sarcoma spheroids after A2BAR antagonist treatment. (A) Representative real-time imaging of spheroid TIL infiltration over 3 days under 4× objective. Green areas demarcate CFSE-labeled TILs infiltrated into the red boundary tumor spheroid. (B) Relative TIL infiltration into autologous spheroids (n=8 donors) measured by flow cytometer. Antagonist 12 µM was added with CSFE-labeled TILs after spheroid formation on day five. (C) Representative flow cytometry plot of CFSE positive TILs in CD73+ tumor spheroid. (D) tSNE analysis and (E) annotated pie chart of TILs within (IN) and outside of (OUT) the spheroids without treatment (n=8 donors, indicated within the pie chart). Wilcoxon Rank Sum test was performed to compare the various IN vs OUT adhesion markers. Expression of (F) CD3 T cells, (G) CD49a+ CD103+ among CD8 T cells and (H) CD69 MFI among CD4 T cells IN and OUT of the spheroids without treatment (n=8 donors). (I) Relative CD8/CD4 TIL ratio IN the spheroids. Differential expression of relative (J–L). CD49a+ CD103+ cells IN the spheroids (n=8 donors) of CD3, CD8, and CD4 TILs. Antagonist 12 µM was added for J–L. Outlier is presented as diamond shape and defined by Tukey’s rule, which is not included in statistical analysis. Box plots with minimum, first quartile, median, third quartile, and maximum are presented. Unpaired and non-parametric statistical analysis—Mann-Whitney test was performed against untreated control with *p<0.05, **p<0.01, ***p<0.001, and ****p<0.0001. CFSE, carboxyfluorescein succinimidyl ester; TIL, tumor infiltrating lymphocyte; tSNE, T-distributed stochastic neighboring embedding. TEXT PRINTED IN THE PICTURE: (C) ISAM-R56A: TILs 13.0 DOUBTS OF THE COPYIST ABOUT THIS PICTURE: Panel C, ISAM-R56A, TILs: the print is small, 13.0 could be 13.8 or 13.6 / Panel C also prints a gate label 'TILs 3.17' for the Untreated control. […]

[3] = tested on: pAMPK in CD4 and CD8 T cells; test: Extracellular ADO uptake assay via pAMPK staining; conditions: antagonist 12 µM, 50 µM exogenous adenosine, n=7 healthy donors
Method: Experimental setup was adopted from a previous study whereby AR antagonist was added to pretreat cells before exogenous adenosine treatment for intracellular and cytokine staining.[37] In brief, PBMCs were treated with 12 µM of A2BAR antagonists for 90 min before the addition of 50 µM of adenosine for 2 hours. Cells were harvested after 3 hours of CD3/CD28 bead stimulation before intracellular staining with phosphor-AMPK (Thr183, Thr172) rabbit primary antibody (Thermo Fisher Scientific) and antirabbit secondary antibody (BD biosciences).
as §1

Row | SMILES | IFNy production in CD4 T cells ([1]; exogenous adenosine, n=5 healthy donors) | IFNy production in CD8 T cells ([1]; exogenous adenosine) | TIL infiltration into autologous sarcoma spheroids vs untreated (real-time imaging) ([2]; n=8 donors) | pAMPK (extracellular ADO uptake) in CD8 T cells [3] | CD69 expression in CD8 T cells ([1]; n=4 healthy donors) | CD69 expression in CD4 T cells ([1]; n=7 healthy donors) | Median increased TIL infiltration vs untreated ([2]; n=8 donors, not statistically significant) [%] | pAMPK (extracellular ADO uptake) in CD4 T cells [3] | IFNy production by T cells on adenosine suppression (subset not given) ([1]; exogenous adenosine) | Perforin production by CD8 T cells on adenosine suppression ([1]; exogenous adenosine) | Perforin production by CD8 T cells on adenosine suppression ([1]; exogenous adenosine, listed as ISAM–R56A) | TIL infiltration into spheroids by flow cytometry (CSFE positive, CD73 negative TILs) [2] | TIL infiltration into autologous sarcoma spheroids vs untreated (real-time imaging) ([2]; n=8 donors, listed as ISAM–R56A)
1 | CC1=C(C(=O)OC(C)C)C(c2ccco2)n2c(nc3ccccc32)N1 (stereo not shown) [ISAM-140, isopropyl 4-(furan-2-yl)−2-methyl-1,4-dihydrobenzo[4 5] imidazo[1,2 a]pyrimidine-3-carboxylate] | upregulated IFNy production | upregulated IFNy production | did not have any effect |  |  |  |  |  |  |  |  |  | 
2 | CC1=C(C(=O)OC(C)C)C(c2ccoc2)n2c(nc3cc(Cl)ccc32)N1 (stereo not shown) [ISAM-M89A] |  |  |  | significantly inhibited ADO uptake | positive effect | positive effect | 7 |  |  |  |  |  | 
3 | CC1=C(C(=O)OC(C)C)C(c2ccco2)n2c(nc3ccccc32)N1Cc1ccccc1F (stereo not shown) [ISAM-R56A] |  | significantly rescued | overall improved TIL infiltration | significantly downregulated pAMPK |  |  |  | significantly downregulated pAMPK | significantly improved | significantly improved | significantly rescued | significantly enhanced TIL infiltration | improved TILs infiltration
